Results: US8609653B2, “Azaindole compounds and methods for treating HIV” (priority 2011, dated 2013)
Counter-ions that a name gives are not always drawn.

Each compound was assayed on HIV (assay: MT4 assay: antiviral HIV activity in MT-4 cells). Settings: Human immunodeficiency virus 1, MT4, 96 h, read-out: HIV MT4 Assay IC50 (μM), HTLV-1 transformed cell line MT-4; read-out 96 hours later with cell titer glo; 10 point dose response.
Format: cell-based
Procedure, shortened: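 Compounds tested in HTLV-1-transformed MT-4 cells for protection from HIV, with cytotoxicity run in parallel under the same conditions; CellTiter-Glo luminescence read 96 h later. IC50 from 10-point, 3–4-fold serial dilutions spanning >1000-fold, % inhibition relative to no-compound control, fitted by four-parameter logistic.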

Compound	IC50
Cc1nc2c(ccn2Cc2ccc(F)cc2Cl)c(-c2ccc(Cl)cc2)c1[C@H](OC(C)(C)C)C(=O)O [Example 89, (S)-2-(tert-butoxy)-2-(1-(2-chloro-4-fluorobenzyl)-4-(4-chlorophenyl)-6-methyl-1H-pyrrolo[2,3-b]pyridin-5-yl)acetic acid]	0.065 µM
Cc1nc2c(ccn2Cc2ccc(F)c(F)c2)c(-c2ccc3c(c2C)NCCO3)c1[C@H](OC(C)(C)C)C(=O)O (atropisomer, axis not shown; (M)) [Example 97, (2S)(M)-2-(tert-butoxy)-2-(1-(3,4-difluorobenzyl)-6-methyl-4-(5-methyl-3,4-dihydro-2H-benzo[b][1,4]oxazin-6-yl)-1H-pyrrolo[2,3-b]pyridin-5-yl)acetic acid, trifluoroacetic acid salt]	0.012 µM
Cc1nc2c(ccn2Cc2cccc(F)c2F)c(-c2cc(Cl)c3c(c2C)CCCO3)c1[C@H](OC(C)(C)C)C(=O)O (atropisomer, axis not shown; (M)) [Example 98, (2S(M))-2-(tert-butoxy)-2-(4-(8-chloro-5-methylchroman-6-yl)-1-(2,3-difluorobenzyl)-6-methyl-1H-pyrrolo[2,3-b]pyridin-5-yl)acetic acid]	0.181 µM
Cc1ccc(-c2c([C@H](OC(C)(C)C)C(=O)O)c(C)nc3c2ccn3[C@H](C)c2ccc(F)cc2)cc1 [Example 15, (S)-2-(tert-butoxy)-2-(1-((R)-1-(4-fluorophenyl)ethyl)-6-methyl-4-(p-tolyl)-1H-pyrrolo[2,3-b]pyridin-5-yl)acetic acid]	0.1 µM
Cc1nc2c(ccn2Cc2cccc(F)c2F)c(-c2ccc3c(c2C)CCCO3)c1[C@H](OC(C)(C)C)C(=O)O (atropisomer, axis not shown; (M)) [Example 99, (2S)(M)-2-(tert-butoxy)-2-(1-(2,3-difluorobenzyl)-6-methyl-4-(5-methylchroman-6-yl)-1H-pyrrolo[2,3-b]pyridin-5-yl)acetic acid]	0.008 µM
Cc1nc2c(ccn2Cc2ccc(C(F)(F)F)o2)c(-c2ccc3c(c2)CCCO3)c1C(OC(C)(C)C)C(=O)O (stereo not shown) [Example 41]	0.1 µM
Cc1nc2c(ccn2[C@H](C)c2ccc(F)cc2)c(-c2ccc3c(c2)CCCO3)c1C(OC(C)(C)C)C(=O)O (stereo partly shown) [Example 81]	0.03 µM
Cc1ccc(-c2c([C@H](OC(C)(C)C)C(=O)O)c(C)nc3c2ccn3Cc2ccc(F)c(F)c2)cc1 [Example 18, (S)-2-(tert-butoxy)-2-(1-(3,4-difluorobenzyl)-6-methyl-4-(p-tolyl)-1H-pyrrolo[2,3-b]pyridin-5-yl)acetic acid]	0.1 µM
Cc1ccc(-c2c(C(OC(C)(C)C)C(=O)O)c(C)nc3c2ccn3Cc2ccc(F)cc2C)cc1 (stereo not shown) [Example 70, 2-(tert-butoxy)-2-(1-(4-fluoro-2-methylbenzyl)-6-methyl-4-(p-tolyl)-1H-pyrrolo[2,3-b]pyridin-5-yl)acetic acid]	0.04 µM
Cc1ccc(F)cc1Cn1ccc2c(-c3ccc4c(c3)CCCO4)c(C(OC(C)(C)C)C(=O)O)c(C)nc21 (stereo not shown) [Example 54, 2-(tert-butoxy)-2-(4-(chroman-6-yl)-1-(5-fluoro-2-methylbenzyl)-6-methyl-1H-pyrrolo[2,3-b]pyridin-5-yl)acetic acid]	0.045 µM
Cc1nc2c(ccn2Cc2ccc(F)c(F)c2)c(-c2ccc3c(c2Cl)N(C)CCO3)c1[C@H](OC(C)(C)C)C(=O)O (atropisomer, axis not shown; (M)) [Example 116, (2S)(M)-2-(tert-Butoxy)-2-(4-(5-chloro-4-methyl-3,4-dihydro-2H-benzo[b][1,4]oxazin-6-yl)-1-(3,4-difluorobenzyl)-6-methyl-1H-pyrrolo[2,3-b]pyridin-5-yl)acetic acid, Trifluoroacetic acid salt]	0.022 µM
Cc1ccc(-c2c(C(OC(C)(C)C)C(=O)O)c(C)nc3c2ccn3C2CCCCC2)cc1 (stereo not shown) [Example 73, 2-(tert-Butoxy)-2-[1-cyclohexyl-6-methyl-4-(4-methylphenyl)-1H-pyrrolo[2,3-b]pyridin-5-yl]acetic acid]	1.31 µM
Cc1ccc(-c2c([C@@H](OC(C)(C)C)C(=O)O)c(C)nc3c2ccn3Cc2cc(F)c(F)c(F)c2)cc1 [Example 10, (R)-2-(tert-butoxy)-2-(6-methyl-4-(p-tolyl)-1-(3,4,5-trifluorobenzyl)-1H-pyrrolo[2,3-b]pyridin-5-yl)acetic acid]	10 µM
Cc1ccc(-c2c(C(OC(C)(C)C)C(=O)O)c(C)nc3c2ccn3Cc2ccc(F)c(C(F)(F)F)c2)cc1 (stereo not shown) [Example 69, 2-(tert-butoxy)-2-(1-(4-fluoro-3-(trifluoromethyl)benzyl)-6-methyl-4-(p-tolyl)-1H-pyrrolo[2,3-b]pyridin-5-yl)acetic acid]	0.25 µM
Cc1ccc(-c2c([C@H](OC(C)(C)C)C(=O)O)c(C)nc3c2ccn3Cc2ccccc2F)cc1 [Example 88, (S)-2-(tert-butoxy)-2-(1-(2-fluorobenzyl)-6-methyl-4-(p-tolyl)-1H-pyrrolo[2,3-b]pyridin-5-yl)acetic acid]	0.107 µM
Cc1nc2c(ccn2Cc2cccc(F)c2F)c(-c2ccc3c(c2)CCCO3)c1C(OC(C)(C)C)C(=O)O (stereo not shown) [Example 34, 2-(tert-butoxy)-2-(4-(chroman-6-yl)-1-(2,3-difluorobenzyl)-6-methyl-1H-pyrrolo[2,3-b]pyridin-5-yl)acetic acid]	0.06 µM

Compound	IC50
Cc1ccc(-c2c(C(OC(C)(C)C)C(=O)O)c(C)nc3c2ccn3Cc2ccc(C(F)(F)F)cc2)cc1 (stereo not shown) [Example 63, 2-(tert-butoxy)-2-(6-methyl-4-(p-tolyl)-1-(4-(trifluoromethyl)benzyl)-1H-pyrrolo[2,3-b]pyridin-5-yl)acetic acid]	3.96 µM
Cc1ccc(-c2c(C(OC(C)(C)C)C(=O)O)c(C)nc3c2ccn3Cc2cc(F)c(F)c(F)c2)cc1 (stereo not shown) [Example 8, 2-(tert-butoxy)-2-(6-methyl-4-(p-tolyl)-1-(3,4,5-trifluorobenzyl)-1H-pyrrolo[2,3-b]pyridin-5-yl)acetic acid]	0.16 µM
Cc1ccc(-c2c(C(OC(C)(C)C)C(=O)O)c(C)nc3c2ccn3Cc2cccc(Cl)c2F)cc1 (stereo not shown) [Example 22, 2-(tert-butoxy)-2-(1-(3-chloro-2-fluorobenzyl)-6-methyl-4-(p-tolyl)-1H-pyrrolo[2,3-b]pyridin-5-yl)acetic acid]	0.86 µM
COc1ccc(Cn2ccc3c(-c4ccc5c(c4)CCCO5)c(C(OC(C)(C)C)C(=O)O)c(C)nc32)cc1F (stereo not shown) [Example 45, 2-(tert-butoxy)-2-(4-(chroman-6-yl)-1-(3-fluoro-4-methoxybenzyl)-6-methyl-1H-pyrrolo[2,3-b]pyridin-5-yl)acetic acid]	0.055 µM
Cc1nc2c(ccn2CC2CCCCC2)c(-c2ccc3c(c2)CCCO3)c1C(OC(C)(C)C)C(=O)O (stereo not shown) [Example 65, 2-(tert-butoxy)-2-(4-(chroman-6-yl)-1-(cyclohexylmethyl)-6-methyl-1H-pyrrolo[2,3-b]pyridin-5-yl)acetic acid]	0.59 µM
Cc1cc(F)ccc1Cn1ccc2c(-c3ccc4c(c3C)CCCO4)c([C@H](OC(C)(C)C)C(=O)O)c(C)nc21 [Example 125, (2S)-2-(tert-butoxy)-2-(1-(4-fluoro-2-methylbenzyl)-6-methyl-4-(5-methylchroman-6-yl)-1H-pyrrolo[2,3-b]pyridin-5-yl)acetic acid]	0.003 µM
Cc1ccc(-c2c(C(OC(C)(C)C)C(=O)O)c(C)nc3c2ccn3Cc2cc(F)cc(F)c2)cc1 (stereo not shown) [Example 78, 2-(tert-Butoxy)-2-(1-(3,5-difluorobenzyl)-6-methyl-4-(p-tolyl)-1H-pyrrolo[2,3-b]pyridin-5-yl)acetic acid]	0.35 µM
Cc1nc2c(ccn2Cc2cccc(F)c2F)c(-c2ccc3c(c2)CCCO3)c1[C@@H](OC(C)(C)C)C(=O)O [Example 86, (R)-2-(tert-butoxy)-2-(4-(chroman-6-yl)-1-(2,3-difluorobenzyl)-6-methyl-1H-pyrrolo[2,3-b]pyridin-5-yl)acetic acid]	50 µM
Cc1nc2c(ccn2Cc2cc(F)c(F)c(F)c2)c(-c2ccc3c(c2)CCCO3)c1C(OC(C)(C)C)C(=O)O (stereo not shown) [Example 32, 2-(tert-butoxy)-2-(4-(chroman-6-yl)-6-methyl-1-(3,4,5-trifluorobenzyl)-1H-pyrrolo[2,3-b]pyridin-5-yl)acetic acid]	0.1 µM
Cc1nc2c(ccn2CC2CCC2)c(-c2ccc3c(c2)CCCO3)c1C(OC(C)(C)C)C(=O)O (stereo not shown) [Example 68, 2-(tert-butoxy)-2-(4-(chroman-6-yl)-1-(cyclobutylmethyl)-6-methyl-1H-pyrrolo[2,3-b]pyridin-5-yl)acetic acid]	0.72 µM
Cc1cc(Cl)ccc1-c1c(C(OC(C)(C)C)C(=O)O)c(C)nc2c1ccn2Cc1ccc(F)cc1 (stereo not shown) [Example 94, 2-(tert-Butoxy)-2-(4-(4-chloro-2-methylphenyl)-1-(4-fluorobenzyl)-6-methyl-1H-pyrrolo[2,3-b]pyridin-5-yl)acetic acid, Trifluoroacetic acid salt]	0.11 µM
Cc1ccc(-c2c([C@H](OC(C)(C)C)C(=O)O)c(C)nc3c2ccn3Cc2ccc(F)cc2F)cc1 [Example 37, (S)-2-(tert-butoxy)-2-(1-(2,4-difluorobenzyl)-6-methyl-4-(p-tolyl)-1H-pyrrolo[2,3-b]pyridin-5-yl)acetic acid]	0.07 µM
Cc1ccc(Cn2ccc3c(-c4ccc5c(c4)CCCO5)c(C(OC(C)(C)C)C(=O)O)c(C)nc32)cc1F (stereo not shown) [Example 35, 2-(tert-butoxy)-2-(4-(chroman-6-yl)-1-(3-fluoro-4-methylbenzyl)-6-methyl-1H-pyrrolo[2,3-b]pyridin-5-yl)acetic acid]	0.42 µM
COc1cccc(F)c1Cn1ccc2c(-c3ccc4c(c3C)CCCO4)c([C@H](OC(C)(C)C)C(=O)O)c(C)nc21 [Example 121, (2S)-2-(tert-butoxy)-2-(1-(2-fluoro-6-methoxybenzyl)-6-methyl-4-(5-methylchroman-6-yl)-1H-pyrrolo[2,3-b]pyridin-5-yl)acetic acid]	0.002 µM
Cc1nc2c(ccn2[C@@H](C)c2ccc(F)cc2)c(-c2ccc3c(c2)CCCO3)c1C(OC(C)(C)C)C(=O)O (stereo partly shown) [Example 83]	0.123 µM
